Where a name gives a salt, the structure may show the parent alone. Read-outs that look alike come from different tables or passages of the source. Starred links: 1 amine or outer side, 2 acyl side, 3 side chain; linkers in the order of their positions; H or OH if unused. Positions of bridges follow the written chain, without caps; N, C: chain ends. Non-standard residues stand in square brackets, D forms with d. Residues, ends and D or L forms follow the SMILES beside them. Chains are numbered I, II in the order given. Actinocin(9to1) = Cc1c2oc3c(C)ccc(C(=O)[*:1])c3nc-2c(C(=O)[*:2])c(N)c1=O; NMeV = CN[C@H](C(=O)O)C(C)C; Sar = CNCC(=O)O
Test system: GH3-TRE-Luc cell line
Conditions: read-out: AC50 (uM) modified / 1000, viability, 1 nM T3 present, 24 h

SMILES: CCCCCCCCCc1ccc(O)cc1 [4-Nonylphenol, branched]
- CC50 (Tox21_110001=Tox21_111040): 28.7 µM
- CC50 (Tox21_110001=Tox21_201528): 23.6 µM
- CC50 (Tox21_110001=Tox21_300576): 22.3 µM

SMILES: O=C1OC(c2ccc(O)cc2)(c2ccc(O)cc2)c2ccccc21 [Phenolphthalein]
- CC50 (Tox21_110001=Tox21_110838): 16.8 µM
- CC50 (Tox21_110001=Tox21_202219): 25.4 µM
- CC50 (Tox21_110001=Tox21_300282): 49.8 µM

SMILES: Nc1c(S(=O)(=O)O)cc(Br)c2c1C(=O)c1ccccc1C2=O [1-Amino-4-bromo-9,10-dioxo-9,10-dihydroanthracene-2-sulfonic] [1-Amino-4-bromo-9,10-dioxo-9,10-dihydroanthracene-2-sulfonic acid]
- CC50 (Tox21_110001=Tox21_301752): 60.1 µM

SMILES: CCCCCCCC[n+]1ccn(C)c1 [1-Methyl-3-octylimidazolium bromide]
- CC50 (Tox21_110001=Tox21_202653): 31.6 µM

SMILES: CCCCCCCCCCCCn1cc[n+](C)c1 [1-Dodecyl-3-methylimidazolium hexafluorophosphate]
- CC50 (Tox21_110001=Tox21_200596): 4.11 µM

SMILES: CN(C)CCCN1c2ccccc2CCc2ccccc21 [Imipramine]
- CC50 (Tox21_110001=Tox21_110174): 9.04 µM
- CC50 (Tox21_110001=Tox21_301417): 19.5 µM

SMILES: CCCCCCCC[n+]1ccn(C)c1 [1-Methyl-3-octylimidazolium tetrafluoroborate]
- CC50 (Tox21_110001=Tox21_200695): 44.3 µM

SMILES: CCCOC(=O)c1cc(O)c(O)c(O)c1 [Propyl gallate]
- CC50 (Tox21_110001=Tox21_113531): 32.9 µM
- CC50 (Tox21_110001=Tox21_202286): 61.7 µM
- CC50 (Tox21_110001=Tox21_300060): 72.8 µM

SMILES: NC(=O)c1ncn([C@@H]2O[C@H](CO)[C@@H](O)[C@H]2O)n1 [Ribavirin]
- CC50 (Tox21_110001=Tox21_110259): 40.1 µM

SMILES: C=C(C)[C@H]1Cc2c(ccc3c2O[C@@H]2COc4cc(OC)c(OC)cc4[C@@H]2C3=O)O1 [Rotenone]
- CC50 (Tox21_110001=Tox21_110819): 3.27 µM
- CC50 (Tox21_110001=Tox21_201904): 15.5 µM
- CC50 (Tox21_110001=Tox21_300695): 5.41 µM

SMILES: Nc1ncn([C@@H]2O[C@H](CO)[C@@H](O)[C@H]2O)c(=O)n1 [5-Azacytidine]
- CC50 (Tox21_110001=Tox21_111032): 5.77 µM
- CC50 (Tox21_110001=Tox21_302985): 19.3 µM

SMILES: Cc1c2oc3c(C)ccc(C(=O)N[C@@H]4C(=O)N[C@H](C(C)C)C(=O)N5CCC[C@H]5C(=O)N(C)CC(=O)N(C)[C@@H](C(C)C)C(=O)O[C@@H]4C)c3nc-2c(C(=O)N[C@@H]2C(=O)N[C@H](C(C)C)C(=O)N3CCC[C@H]3C(=O)N(C)CC(=O)N(C)[C@@H](C(C)C)C(=O)O[C@@H]2C)c(N)c1=O [Actinomycin D] (I: T[dV]P[Sar][NMeV] / II: T[dV]P[Sar][NMeV]; ester I:1-I:C, II:1-II:C; linker I:N-II:N via Actinocin(9to1))
- CC50 (Tox21_110001=Tox21_111997): 0.00788 µM
- CC50 (Tox21_110001=Tox21_202482): 0.000903 µM

SMILES: COc1cc([C@@H]2c3cc4c(cc3[C@@H](O[C@@H]3O[C@@H]5CO[C@@H](C)O[C@H]5[C@H](O)[C@H]3O)[C@H]3COC(=O)[C@H]23)OCO4)cc(OC)c1O [Etoposide]
- CC50 (Tox21_110001=Tox21_110630): 6.45 µM
- CC50 (Tox21_110001=Tox21_302201): 2.85 µM

SMILES: CN(C)c1ccc(C(=C2C=CC(=[N+](C)C)C=C2)c2ccccc2)cc1 [Malachite green oxalate]
- CC50 (Tox21_110001=Tox21_110008): 5.84 µM
- CC50 (Tox21_110001=Tox21_202521): 0.0943 µM

SMILES: COC(=O)Nc1nc2ccccc2[nH]1 [Carbendazim]
- CC50 (Tox21_110001=Tox21_300478): 11.4 µM

SMILES: CCN(CC)C(=S)S [Sodium diethyldithiocarbamate]
- CC50 (Tox21_110001=Tox21_112412): 1.18 µM

SMILES: COc1cc(/C=C/C(=O)CC(=O)/C=C/c2ccc(O)c(OC)c2)ccc1O [Curcumin]
- CC50 (Tox21_110001=Tox21_110803): 22.1 µM
- CC50 (Tox21_110001=Tox21_201116): 26.5 µM

SMILES: c1cnc2c(c1)ccc1cccnc12 [1,10-Phenanthroline hydrochloride hydrate]
- CC50 (Tox21_110001=Tox21_301286): 7.25 µM

SMILES: CCCCCCCCCCCCn1cc[n+](C)c1 [1-Dodecyl-3-methylimidazolium trifluoromethanesulfonate]
- CC50 (Tox21_110001=Tox21_202630): 3.74 µM

SMILES: C=C[C@H]1C[N@@]2CC[C@H]1C[C@H]2[C@H](O)c1ccnc2ccc(OC)cc12 [Quinine]
- CC50 (Tox21_110001=Tox21_112389): 42.9 µM

SMILES: CN(Cc1cnc2nc(N)nc(N)c2n1)c1ccc(C(=O)N[C@@H](CCC(=O)O)C(=O)O)cc1 [Methotrexate]
- CC50 (Tox21_110001=Tox21_300269): 0.164 µM

SMILES: CCCCCCCCCCCCCCCCn1cc[n+](C)c1 [1-Hexadecyl-3-methylimidazolium tetrafluoroborate]
- CC50 (Tox21_110001=Tox21_202647): 12.9 µM

SMILES: CCn1c2ccccc2c2cc(N)ccc21 [3-Amino-9-ethylcarbazole]
- CC50 (Tox21_110001=Tox21_303548): 93.2 µM

SMILES: Oc1cccc2cccnc12 [8-Hydroxyquinoline]
- CC50 (Tox21_110001=Tox21_113083): 3 µM
- CC50 (Tox21_110001=Tox21_202986): 3.28 µM
- CC50 (Tox21_110001=Tox21_400006): 3.8 µM

SMILES: Oc1c(Cl)cc(Cl)cc1Sc1cc(Cl)cc(Cl)c1O [Sodium bithionolate]
- CC50 (Tox21_110001=Tox21_202791): 7.44 µM

SMILES: CCCCCCCCCCn1cc[n+](C)c1 [1-Decyl-3-methylimidazolium bromide]
- CC50 (Tox21_110001=Tox21_202622): 18 µM

SMILES: C#C[C@]1(O)CC[C@H]2[C@@H]3CCC4=CCCC[C@@H]4[C@H]3CC[C@@]21C [Lynestrenol]
- CC50 (Tox21_110001=Tox21_110319): 17.1 µM
- CC50 (Tox21_110001=Tox21_301969): 46.9 µM

SMILES: C[C@]12CC[C@@H]3c4ccc(O)cc4CC[C@H]3[C@@H]1CC[C@@H]2OC(=O)CCC1CCCC1 [Estradiol cypionate]
- CC50 (Tox21_110001=Tox21_110003): 32.5 µM
- CC50 (Tox21_110001=Tox21_112331): 43.4 µM
- CC50 (Tox21_110001=Tox21_301818): 86.1 µM

SMILES: CC[C@H]1OC(=O)[C@H](C)[C@@H](O[C@H]2C[C@@](C)(OC)[C@@H](O)[C@H](C)O2)[C@H](C)[C@@H](O[C@@H]2O[C@H](C)C[C@H](N(C)C)[C@H]2O)[C@](C)(O)C[C@@H](C)/C(=N\OCOCCOC)[C@H](C)[C@@H](O)[C@]1(C)O [Roxithromycin]
- CC50 (Tox21_110001=Tox21_301835): 31 µM

SMILES: O=S(=O)(O)c1ccc2c(N=Nc3ccc(S(=O)(=O)O)c4ccccc34)c(O)c(S(=O)(=O)O)cc2c1 [Amaranth]
- CC50 (Tox21_110001=Tox21_112280): 19.3 µM
